Measured values taken from patent US12268683B2, “Compounds and methods for synergistic activation of M channels” (THE REGENTS OF THE UNIVERSITY OF CALIFORNIA, priority 2018, dated 2025).

What was measured:
KCNA1 = KCNA1 (Homo sapiens, UniProt Q09470); test: TEVC of KCNA1 expressed in Xenopus oocytes; assay type: cell-based
Excerpt: cRNA transcripts encoding human KCNA1, KCNQ1, KCNQ2, KCNQ3, KCNQ4, or KCNQ5 were generated by in vitro transcription using the T7 polymerase message machine kit (Thermo Fisher Scientific), after vector linearization, from cDNA sub-cloned into plasmids incorporating X. laevis β-globin 5′ and 3′ UTRs flanking the coding region to enhance translation and cRNA stability. cRNA was quantified by spectrophotometry. Mutant cDNAs were generated by site-directed mutagenesis using a QuikChange kit according to manufacturer's protocol (Stratagene, San Diego, Calif.) and corresponding cRNAs prepared as above. Defolliculated stage V and VI X. laevis oocytes (Ecocyte Bioscience, Austin, Tex.) were injected with Kv channel a subunit cRNAs (10 ng total per oocyte). […]
TEVC recording was performed at room temperature with an OC-725C amplifier (Warner Instruments, Hamden, Conn.) and pClamp10.2 software (Molecular Devices, Sunnyvale, Calif.) 3-5 days after cRNA injection as described in the section above. […] Currents were recorded in response to pulses between −80 and +40 mV at 20 mV intervals, or a single pulse to +40 mV, from a holding potential of −80 mV, to yield current-voltage relationships, current magnitude, and for quantifying activation rate. […]

[1] = tested on: pentylene tetrazole-induced seizures; test: PTZ chemoconvulsant assay; assay type: in vivo, mouse; conditions: for clonic seizure incidence: alone
Excerpt: We compared anticonvulsant activities of test compounds in male C57BL/6 mice (Charles River) aged 2-3 months. Mice were housed and used according to the recommendations in the Guide for the Care and Use of Laboratory Animals of the National Institutes of Health (NIH Publication, 8th edition, 2011). The study protocol was approved by the Institutional Animal Care and Use Committee of University of California, Irvine, which confirmed that all relevant ethical regulations were adhered to. Chemicals were sourced from Sigma (St. Louis, Mo., USA). A pentylene tetrazole (PTZ) chemoconvulsant assay was used-. […] Following the PTZ injection, mice were caged individually and an observer (GWA) blinded to the drug used recorded, over 20 min, clonic and tonic seizure incidence, and seizure-related mortality.
We quantified the anticonvulsant activities of (E)-2-dodecenal and tridecanal in male C57BL/6 mice (Charles River, Wilmington, Mass.) aged 2-3 months. The mice were housed and used according to the recommendations in the Guide for the Care and Use of Laboratory Animals of the National Institutes of Health (NIH Publication, 8th edition, 2011). The study protocol was approved by the Institutional Animal Care and Use Committee of University of California, Irvine. The chemicals were sourced from Sigma (St. Louis, Mo., USA). We used a pentylene tetrazole (PTZ) chemoconvulsant assay as we previously described (30). We injected the mice intraperitoneally with (E)-2-dodecenal (2 or 20 mgkg^−1) (with or without 2.5 mgkg^−1 XE991) or tridecanal (20 mgkg^−1) solubilized in PBS, or vehicle control (PBS), and then 30 minutes later we injected mice intraperitoneally with 80 mgkg-PTZ. Following the PTZ injection, the mice were caged individually and an observer (GWA) blinded to the experimental condition timed the latency to first seizure.
We compared anticonvulsant activities of 3FMSG in male C57BL/6 mice (Charles River) aged 2-3 months. Mice were housed and used according to the recommendations in the Guide for the Care and Use of Laboratory Animals of the National Institutes of Health (NIH Publication, 8th edition, 2011). The study protocol was approved by the Institutional Animal Care and Use Committee of University of California, Irvine, which confirmed that all relevant ethical regulations were adhered to. Chemicals were sourced from Sigma (St. Louis, Mo., USA). We used a pentylene tetrazole (PTZ) chemoconvulsant assay as we previously described^27. Mice were injected intraperitoneally with 3FMSG (5 mg kg^−1) or vehicle control (PBS) and then 30 minutes later injected intraperitoneally with 80 mg kg^−1 PTZ. Following the PTZ injection, mice were caged individually and an observer (GWA) blinded to the drug used recorded seizure activity over 20 minutes.

[2] = humans; cited from earlier work

Sequence of KCNA1 (Q09470 whole entry): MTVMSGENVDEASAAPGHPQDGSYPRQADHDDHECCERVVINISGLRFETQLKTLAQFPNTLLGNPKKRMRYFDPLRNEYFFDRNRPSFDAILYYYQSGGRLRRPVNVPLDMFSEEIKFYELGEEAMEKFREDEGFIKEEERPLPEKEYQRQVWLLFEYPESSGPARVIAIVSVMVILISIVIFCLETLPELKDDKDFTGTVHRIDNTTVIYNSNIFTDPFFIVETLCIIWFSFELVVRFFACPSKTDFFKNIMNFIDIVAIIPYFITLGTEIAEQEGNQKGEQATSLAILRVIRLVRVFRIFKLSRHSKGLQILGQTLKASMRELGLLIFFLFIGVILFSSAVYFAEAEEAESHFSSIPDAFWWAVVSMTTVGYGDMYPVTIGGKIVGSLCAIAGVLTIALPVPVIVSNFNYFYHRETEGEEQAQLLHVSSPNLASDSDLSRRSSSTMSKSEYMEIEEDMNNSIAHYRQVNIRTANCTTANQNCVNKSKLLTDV

Row | effect on KCNA1 (in words) (KCNA1) | Compound | clonic seizure incidence ([1]; 10 mg/kg i.p.) | clonic seizure incidence ([1]; 20 mg/kg i.p.) | suppression of PTZ-induced tonic seizures ([1]; individually) | mean Tmax [2] [min] | well tolerated dose [2]
1 | did not alter currents | CC(C)CC(=O)O [IVA, isovaleric acid] | neither compound reduced clonic seizures alone | no effect | ineffective |  | 
2 |  | CC(C)CC(N)=O [Isovaleramide, isovaleramide] |  |  |  | 30 to 45 | at least 2400 mg per day
